From US20220177477A1 (Central China Normal University, priority 2019, published 2022)
Like-named read-outs stand apart in the source and are kept apart here.

Molecular target: T1, TRKA (Homo sapiens, UniProt P04629)
T1 construct: purchased Carna Biosciences 08-186
Test: In vitro biochemical HTRF KinEASE kinase inhibition, TRKA

[1] = wild-type kinase, final ATP 3.727 μmol/L, read-out: TRKA IC50

T1 sequence (P04629 33-796): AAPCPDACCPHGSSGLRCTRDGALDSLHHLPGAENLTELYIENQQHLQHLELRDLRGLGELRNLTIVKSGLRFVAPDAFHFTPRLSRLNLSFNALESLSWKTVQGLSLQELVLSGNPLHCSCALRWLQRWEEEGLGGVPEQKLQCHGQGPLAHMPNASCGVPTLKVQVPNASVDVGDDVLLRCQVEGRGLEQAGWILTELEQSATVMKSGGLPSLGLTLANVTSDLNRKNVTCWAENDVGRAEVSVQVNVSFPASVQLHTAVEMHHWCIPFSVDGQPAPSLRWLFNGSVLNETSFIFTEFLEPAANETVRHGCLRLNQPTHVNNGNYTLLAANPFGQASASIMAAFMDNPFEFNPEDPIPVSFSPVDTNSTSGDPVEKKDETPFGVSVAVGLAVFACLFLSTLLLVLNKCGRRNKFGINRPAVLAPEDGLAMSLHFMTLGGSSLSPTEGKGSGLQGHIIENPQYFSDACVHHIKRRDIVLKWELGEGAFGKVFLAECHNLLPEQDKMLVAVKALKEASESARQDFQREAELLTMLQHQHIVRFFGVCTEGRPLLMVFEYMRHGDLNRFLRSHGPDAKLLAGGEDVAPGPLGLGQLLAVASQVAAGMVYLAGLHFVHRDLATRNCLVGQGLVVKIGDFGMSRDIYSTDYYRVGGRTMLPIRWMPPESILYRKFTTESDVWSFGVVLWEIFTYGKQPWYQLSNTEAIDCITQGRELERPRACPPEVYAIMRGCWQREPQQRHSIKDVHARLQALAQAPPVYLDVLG

Structure (SMILES)	IC50 [1]	IC50
CC(Nc1ccn2ncc(-c3cnn(CC(F)F)c3)c2n1)c1cc(F)ccc1OCC(F)F (stereo not drawn) [Compound 6, N-(1-(2-(2,2-difluoroethoxy)-5-fluorophenyl)ethyl)-3-(1-(2,2-difluoroethyl)-1H-pyrazol-4-yl) pyrazolo [1,5-a] pyrimidin-5-amine]	12.4 nM	–
CC(Nc1ccn2ncc(-c3cnn(C4CCCCC4O)c3)c2n1)c1cc(F)ccc1OCC(F)F (stereo not drawn) [Compound 9, 2-(4-(5-((1-(2-(2,2-difluoroethoxy)-5-fluorophenyl)ethyl)amino)pyrazolo [1,5-a]pyrimidin-3-yl)-1H-pyrazol-1-yl) cyclohexan-1-ol]	11.4 nM	–
CC(Nc1ccn2ncc(-c3cnn(C4CCOCC4)c3)c2n1)c1cc(F)ccc1OCC(F)F (stereo not drawn) [Compound 11, N-(1-(2-(2,2-difluoroethoxy)-5-fluorophenyl)ethyl)-3-(1-(tetrahydro-2H-pyran-4-yl)-1H-pyrazol-4-yl) pyrazolo [1,5-a] pyrimidin-5-amine]	11.8 nM	–
CC(Nc1ccn2ncc(-c3cnn(S(C)(=O)=O)c3)c2n1)c1cc(F)ccc1OCC(F)F (stereo not drawn) [Compound 13, N-(1-(2-(2,2-difluoroethoxy)-5-fluorophenyl)ethyl)-3-(1-(methylsulfonyl)-1H-pyrazol-4-yl) pyrazolo [1,5-a] pyrimidin-5-amine]	10.4 nM	–
CC(Nc1ccn2ncc(-c3cnn(C)c3)c2n1)c1ccccc1OCC(F)F (stereo not drawn) [Compound 17, N-(1-(2-(2,2-difluoroethoxy)phenyl)ethyl)-3-(1-methyl-1H-pyrazol-4-yl) pyrazolo [1,5-a] pyrimidin-5-amine]	18.3 nM	–
CC(Nc1ccn2ncc(-c3cnn(C4CCCCC4O)c3)c2n1)c1cc(F)ccc1O (stereo not drawn) [Compound a3-4, 4-fluoro-2-(1-((3-(1-(2-hydroxycyclohexyl)-1H-pyrazol-4-yl)pyrazolo [1,5-a]pyrimidin-5-yl)amino)ethyl) phenol]	24.2 nM	–
CC(Nc1ccn2ncc(-c3cnn(CCO)c3)c2n1)c1cc(F)ccc1OC(F)F (stereo not drawn) [Compound a5-9, 2-(4-(5-((1-(2-(difluoromethoxy)-5-fluorophenyl)ethyl)amino)pyrazolo [1,5-a]pyrimidin-3-yl)-1H-pyrazol-1-yl) ethan-1-ol]	4 nM	–
CC(Nc1ccn2ncc(-c3cnn(C4CCOCC4)c3)c2n1)c1cc(F)ccc1OC(F)F (stereo not drawn) [Compound a6-10, N-(1-(2-(difluoromethoxy)-5-fluorophenyl)ethyl)-3-(1-(tetrahydro-2H-pyran-4-yl)-1H-pyrazol-4-yl) pyrazolo [1,5-a] pyrimidin-5-amine]	26.5 nM	–
CC(Nc1ccn2ncc(-c3cnn(C(F)F)c3)c2n1)c1cc(F)ccc1OCCO (stereo not drawn) [Compound a8-13, 2-(2-(1-((3-(1-(difluoromethyl)-1H-pyrazol-4-yl)pyrazolo [1,5-a]pyrimidin-5-yl)amino)ethyl)-4-fluorophenoxy) ethanol]	40.9 nM	–
C[C@@H](Nc1ccn2ncc(-c3cnn(CC#N)c3)c2n1)c1cc(F)ccc1OCCF [Compound a12-19, (R)-2-(4-(5-((1-(5-fluoro-2-(2-fluoroethoxy)phenyl)ethyl)amino)pyrazolo [1,5-a]pyrimidin-3-yl)-1H-pyrazol-1-yl) acetonitrile]	3.3 nM	–
CC(Nc1ccn2ncc(-c3cnn(CCO)c3)c2n1)c1cc(F)ccc1OCCF (stereo not drawn) [Compound a15-22, 2-(4-(5-((1-(5-fluoro-2-(2-fluoroethoxy)phenyl)ethyl)amino)pyrazolo [1,5-a]pyrimidin-3-yl)-1H-pyrazol-1-yl) ethanol]	7.9 nM	–
CC(Nc1ccn2ncc(-c3cnn(CC(F)F)c3)c2n1)c1cc(F)ccc1OCCF (stereo not drawn) [Compound a16-23, 3-(1-(2,2-difluoroethyl)-1H-pyrazol-4-yl)-N-(1-(5-fluoro-2-(2-fluoroethoxy)phenyl)ethyl) pyrazolo [1,5-a] pyrimidin-5-amine]	9 nM	–
CC(Nc1ccn2ncc(-c3cnn(C4CCCC4O)c3)c2n1)c1cc(F)ccc1OCCF (stereo not drawn) [Compound a17-24, 2-(4-(5-((1-(5-fluoro-2-(2-fluoroethoxy)phenyl)ethyl)amino)pyrazolo [1,5-a]pyrimidin-3-yl)-1H-pyrazol-1-yl) cyclopentan-1-ol]	7.6 nM	–
CC(Nc1ccn2ncc(-c3cnn(C4CCCCC4O)c3)c2n1)c1cc(F)ccc1OCCF (stereo not drawn) [Compound a18-25, 2-(4-(5-((1-(5-fluoro-2-(2-fluoroethoxy)phenyl)ethyl)amino)pyrazolo [1,5-a]pyrimidin-3-yl)-1H-pyrazol-1-yl) cyclohexan-1-ol]	9 nM	–
C[C@@H](Nc1ccn2ncc(-c3cnn(C4CCCCO4)c3)c2n1)c1cc(F)ccc1OCCF (stereo partly drawn) [Compound a20-27, N-((R)-1-(5-fluoro-2-(2-fluoroethoxy)phenyl)ethyl)-3-(1-(tetrahydro-2H-pyran-2-yl)-1H-pyrazol-4-yl) pyrazolo [1,5-a] pyrimidin-5-amine]	2.8 nM	–
CC(=O)n1cc(-c2cnn3ccc(NC(C)c4cc(F)ccc4OCCF)nc23)cn1 (stereo not drawn) [Compound a21-28, 1-(4-(5-((1-(5-fluoro-2-(2-fluoroethoxy)phenyl)ethyl)amino)pyrazolo [1,5-a]pyrimidin-3-yl)-1H-pyrazol-1-yl) ethanone]	5.3 nM	–
CC(Nc1ccn2ncc(-c3cnn(C4CCOCC4)c3)c2n1)c1cc(F)ccc1OCCCF (stereo not drawn) [Compound a25-35, N-(1-(5-fluoro-2-(3-fluoropropoxy)phenyl)ethyl)-3-(1-(tetrahydro-2H-pyran-4-yl)-1H-pyrazol-4-yl) pyrazolo [1,5-a] pyrimidin-5-amine]	24.8 nM	–
CC(Nc1ccn2ncc(-c3cnn(C)c3)c2n1)c1cc(F)ccc1OCC1CCOCC1 (stereo not drawn) [Compound a28-43, N-(1-(5-fluoro-2-((tetrahydro-2H-pyran-4-yl)methoxy)phenyl)ethyl)-3-(1-methyl-1H-pyrazol-4-yl) pyrazolo [1,5-a] pyrimidin-5-amine]	110 nM	–
COCCOc1ccc(F)cc1C(C)Nc1ccn2ncc(-c3cn[nH]c3)c2n1 (stereo not drawn) [Compound b6-15, N-(1-(5-fluoro-2-(2-methoxyethoxy)phenyl)ethyl)-3-(1H-pyrazol-4-yl) pyrazolo [1,5-a] pyrimidin-5-amine]	24 nM	–
CC(Nc1ccn2ncc(-c3cn[nH]c3)c2n1)c1cc(F)ccc1OCC#N (stereo not drawn) [Compound b11-36, 2-(2-(1-((3-(1H-pyrazol-4-yl)pyrazolo [1,5-a]pyrimidin-5-yl)amino)ethyl)-4-fluorophenoxy) acetonitrile]	–	88.6 nM
CC(Nc1ccn2ncc(-c3cn[nH]c3)c2n1)c1cc(F)ccc1OCCN1CCOCC1 (stereo not drawn) [Compound b16-44, N-(1-(5-fluoro-2-(2-morpholinoethoxy)phenyl)ethyl)-3-(1H-pyrazol-4-yl) pyrazolo [1,5-a] pyrimidin-5-amine]	364 nM	–

Now from value to compound, other results behind:

IC50 [1]	Structure (SMILES)	IC50
11.7 nM	CC(Nc1ccn2ncc(-c3cnn(C)c3)c2n1)c1cc(F)cc(F)c1OCC(F)F (stereo not drawn) [Compound 15, N-(1-(2-(2,2-difluoroethoxy)-3,5-difluorophenyl)ethyl)-3-(1-methyl-1H-pyrazol-4-yl) pyrazolo [1,5-a] pyrimidin-5-amine]	–
9 nM	CC(Nc1ccn2ncc(-c3cnn(C)c3)c2n1)c1cc(F)ccc1O (stereo not drawn) [Compound a1-2, 4-fluoro-2-(1-((3-(1-methyl-1H-pyrazol-4-yl)pyrazolo [1,5-a]pyrimidin-5-yl)amino)ethyl) phenol]	–
23 nM	CCOc1ccc(F)cc1C(C)Nc1ccn2ncc(-c3cnn(C4CCOCC4)c3)c2n1 (stereo not drawn) [Compound a7-12, N-(1-(2-ethoxy-5-fluorophenyl)ethyl)-3-(1-(tetrahydro-2H-pyran-4-yl)-1H-pyrazol-4-yl) pyrazolo [1,5-a] pyrimidin-5-amine]	–
67.8 nM	COCCOc1ccc(F)cc1C(C)Nc1ccn2ncc(-c3cnn(C4CCOCC4)c3)c2n1 (stereo not drawn) [Compound a9-14, N-(1-(5-fluoro-2-(2-methoxyethoxy)phenyl)ethyl)-3-(1-(tetrahydro-2H-pyran-4-yl)-1H-pyrazol-4-yl) pyrazolo [1,5-a] pyrimidin-5-amine]	–
20.2 nM	CC(Nc1ccn2ncc(-c3cnn(C(C)C)c3)c2n1)c1cc(F)ccc1OCCF (stereo not drawn) [Compound a13-20, N-(1-(5-fluoro-2-(2-fluoroethoxy)phenyl)ethyl)-3-(1-isopropyl-1H-pyrazol-4-yl) pyrazolo [1,5-a] pyrimidin-5-amine]	–
12 nM	CC(Nc1ccn2ncc(-c3cnn(C4CC4)c3)c2n1)c1cc(F)ccc1OCCF (stereo not drawn) [Compound a14-21, 3-(1-cyclopropyl-1H-pyrazol-4-yl)-N-(1-(5-fluoro-2-(2-fluoroethoxy)phenyl)ethyl) pyrazolo [1,5-a] pyrimidin-5-amine]	–
15.8 nM	CC(Nc1ccn2ncc(-c3cnn(C4CCOCC4)c3)c2n1)c1cc(F)ccc1OCCF (stereo not drawn) [Compound a19-26, N-(1-(5-fluoro-2-(2-fluoroethoxy)phenyl)ethyl)-3-(1-(tetrahydro-2H-pyran-4-yl)-1H-pyrazol-4-yl) pyrazolo [1,5-a] pyrimidin-5-amine]	–
14.6 nM	CC(Nc1ccn2ncc(-c3cnn(S(C)(=O)=O)c3)c2n1)c1cc(F)ccc1OCCF (stereo not drawn) [Compound a22-29, N-(1-(5-fluoro-2-(2-fluoroethoxy)phenyl)ethyl)-3-(1-(methylsulfonyl)-1H-pyrazol-4-yl) pyrazolo [1,5-a] pyrimidin-5-amine]	–
9.5 nM	CC(Nc1ccn2ncc(-c3cn[nH]c3)c2n1)c1cc(F)ccc1O (stereo not drawn) [Compound b1-1, 2-(1-((3-(1H-pyrazol-4-yl)pyrazolo [1,5-a]pyrimidin-5-yl)amino)ethyl)-4-fluorophenol]	–
15.2 nM	COc1ccc(F)cc1C(C)Nc1ccn2ncc(-c3cn[nH]c3)c2n1 (stereo not drawn) [Compound b2-5, N-(1-(5-fluoro-2-methoxyphenyl)ethyl)-3-(1H-pyrazol-4-yl) pyrazolo [1,5-a]pyrimidin-5-amine]	–
4.2 nM	CC(Nc1ccn2ncc(-c3cn[nH]c3)c2n1)c1cc(F)ccc1OCC1CC1 (stereo not drawn) [Compound b12-37, N-(1-(2-(cyclopropylmethoxy)-5-fluorophenyl)ethyl)-3-(1H-pyrazol-4-yl) pyrazolo [1,5-a] pyrimidin-5-amine]	–
55 nM	CC(Nc1ccn2ncc(-c3cn[nH]c3)c2n1)c1cc(F)ccc1OCC1CCOCC1 (stereo not drawn) [Compound b15-42, N-(1-(5-fluoro-2-((tetrahydro-2H-pyran-4-yl)methoxy)phenyl)ethyl)-3-(1H-pyrazol-4-yl) pyrazolo [1,5-a] pyrimidin-5-amine]	–
